Data: ChEMBL document CHEMBL4715697, “Synthesis and biological activity of benzamide DNA minor groove binders” (2016)

Experiments:
Format in all cases: functional
SR = assay: Growth inhibition of human SR cells assessed as cell growth at 0.01 uM incubated for 48 hrs by sulforhodamine B assay relative to control; conditions: read-out: Activity
SF-295 [1] = assay: Growth inhibition of human SF-295 cells assessed as cell growth at 0.01 uM incubated for 48 hrs by sulforhodamine B assay relative to control; conditions: read-out: Activity
Malme-3M [2] = assay: Growth inhibition of human Malme-3M cells assessed as cell growth at 0.01 uM incubated for 48 hrs by sulforhodamine B assay relative to control; conditions: read-out: Activity
UACC-62 = assay: Growth inhibition of human UACC-62 cells assessed as cell growth at 0.01 uM incubated for 48 hrs by sulforhodamine B assay relative to control; conditions: read-out: Activity
NCI/ADR-RES = assay: Growth inhibition of human NCI/ADR-RES cells assessed as cell growth at 0.01 uM incubated for 48 hrs by sulforhodamine B assay relative to control; conditions: read-out: Activity
CAKI-1 = assay: Growth inhibition of human CAKI-1 cells assessed as cell growth at 0.01 uM incubated for 48 hrs by sulforhodamine B assay relative to control; conditions: read-out: Activity
CCRF-CEM = assay: Growth inhibition of human CCRF-CEM cells assessed as cell growth at 0.1 uM incubated for 48 hrs by sulforhodamine B assay relative to control; conditions: read-out: Activity
A549 [3] = assay: Growth inhibition of human A549/ATCC cells assessed as cell growth at 0.1 uM incubated for 48 hrs by sulforhodamine B assay relative to control; conditions: read-out: Activity
SF-295 [4] = assay: Growth inhibition of human SF-295 cells assessed as cell growth at 0.1 uM incubated for 48 hrs by sulforhodamine B assay relative to control; conditions: read-out: Activity
M14 [5] = assay: Growth inhibition of human M14 cells assessed as cell growth at 0.1 uM incubated for 48 hrs by sulforhodamine B assay relative to control; conditions: read-out: Activity
OVCAR-5 [6] = assay: Growth inhibition of human OVCAR-5 cells assessed as cell growth at 0.1 uM incubated for 48 hrs by sulforhodamine B assay relative to control; conditions: read-out: Activity
OVCAR-8 = assay: Growth inhibition of human OVCAR-8 cells assessed as cell growth at 0.1 uM incubated for 48 hrs by sulforhodamine B assay relative to control; conditions: read-out: Activity
PC-3 [7] = assay: Growth inhibition of human PC-3 cells assessed as cell growth at 0.1 uM incubated for 48 hrs by sulforhodamine B assay relative to control; conditions: read-out: Activity
RPMI-8226 = assay: Growth inhibition of human RPMI-8226 cells assessed as cell growth at 1 uM incubated for 48 hrs by sulforhodamine B assay relative to control; conditions: read-out: Activity
EKVX = assay: Growth inhibition of human EKVX cells assessed as cell growth at 1 uM incubated for 48 hrs by sulforhodamine B assay relative to control; conditions: read-out: Activity
NCI-H322M = assay: Growth inhibition of human NCI-H322M cells assessed as cell growth at 1 uM incubated for 48 hrs by sulforhodamine B assay relative to control; conditions: read-out: Activity
Malme-3M [8] = assay: Growth inhibition of human Malme-3M cells assessed as cell growth at 1 uM incubated for 48 hrs by sulforhodamine B assay relative to control; conditions: read-out: Activity
OVCAR-4 = assay: Growth inhibition of human OVCAR-4 cells assessed as cell growth at 1 uM incubated for 48 hrs by sulforhodamine B assay relative to control; conditions: read-out: Activity
SN12C = assay: Growth inhibition of human SN12C cells assessed as cell growth at 1 uM incubated for 48 hrs by sulforhodamine B assay relative to control; conditions: read-out: Activity
PC-3 [9] = assay: Growth inhibition of human PC-3 cells assessed as cell growth at 1 uM incubated for 48 hrs by sulforhodamine B assay relative to control; conditions: read-out: Activity
BT-549 = assay: Growth inhibition of human BT-549 cells assessed as cell growth at 1 uM incubated for 48 hrs by sulforhodamine B assay relative to control; conditions: read-out: Activity
MDA-MB-468 [10] = assay: Growth inhibition of human MDA-MB-468 cells assessed as cell growth at 1 uM incubated for 48 hrs by sulforhodamine B assay relative to control; conditions: read-out: Activity
A549 [11] = assay: Growth inhibition of human A549/ATCC cells assessed as cell growth at 100 uM incubated for 48 hrs by sulforhodamine B assay relative to control; conditions: read-out: Activity
NCI-H460 = assay: Growth inhibition of human NCI-H460 cells assessed as cell growth at 100 uM incubated for 48 hrs by sulforhodamine B assay relative to control; conditions: read-out: Activity
HCT-15 = assay: Growth inhibition of human HCT-15 cells assessed as cell growth at 100 uM incubated for 48 hrs by sulforhodamine B assay relative to control; conditions: read-out: Activity
KM12 = assay: Growth inhibition of human KM12 cells assessed as cell growth at 100 uM incubated for 48 hrs by sulforhodamine B assay relative to control; conditions: read-out: Activity
SK-MEL-28 = assay: Growth inhibition of human SK-MEL-28 cells assessed as cell growth at 100 uM incubated for 48 hrs by sulforhodamine B assay relative to control; conditions: read-out: Activity
OVCAR-5 [12] = assay: Growth inhibition of human OVCAR-5 cells assessed as cell growth at 100 uM incubated for 48 hrs by sulforhodamine B assay relative to control; conditions: read-out: Activity
PC-3 [13] = assay: Growth inhibition of human PC-3 cells assessed as cell growth at 100 uM incubated for 48 hrs by sulforhodamine B assay relative to control; conditions: read-out: Activity
MDA-MB-468 [14] = assay: Growth inhibition of human MDA-MB-468 cells assessed as cell growth at 100 uM incubated for 48 hrs by sulforhodamine B assay relative to control; conditions: read-out: Activity
NCI-H23 = assay: Growth inhibition of human NCI-H23 cells incubated for 48 hrs by sulforhodamine B assay
SF-268 = assay: Growth inhibition of human SF-268 cells incubated for 48 hrs by sulforhodamine B assay
M14 [15] = assay: Growth inhibition of human M14 cells incubated for 48 hrs by sulforhodamine B assay
SK-MEL-5 = assay: Growth inhibition of human SK-MEL-5 cells incubated for 48 hrs by sulforhodamine B assay
IGROV-1 = assay: Growth inhibition of human IGROV-1 cells incubated for 48 hrs by sulforhodamine B assay
SK-OV-3 = assay: Growth inhibition of human SK-OV-3 cells incubated for 48 hrs by sulforhodamine B assay
[16] = read-out: LC50 (the source's name)
[17] = read-out: pLC50 (the source's name) (converted)

CC(=O)Nc1cc(CCl)cc(NC(=O)c2ccc(C(=O)Nc3cccc(NC(=O)CCCN(C)C)c3)cc2)c1
growth at 0.01 µM (SR): 96%
growth at 0.01 µM (SF-295 [1]): 74%
growth at 0.01 µM (Malme-3M [2]): 99%
growth at 0.01 µM (UACC-62): 100%
growth at 0.01 µM (NCI/ADR-RES): 105%
growth at 0.01 µM (CAKI-1): 100%
growth at 0.1 µM (CCRF-CEM): 113%
growth at 0.1 µM (A549 [3]): 99%
growth at 0.1 µM (SF-295 [4]): 74%
growth at 0.1 µM (M14 [5]): 102%
growth at 0.1 µM (OVCAR-5 [6]): 88%
growth at 0.1 µM (OVCAR-8): 97%
growth at 0.1 µM (PC-3 [7]): 103%
growth at 1 µM (RPMI-8226): 116%
growth at 1 µM (EKVX): 81%
growth at 1 µM (NCI-H322M): 100%
growth at 1 µM (Malme-3M [8]): 97%
growth at 1 µM (OVCAR-4): 91%
growth at 1 µM (SN12C): 105%
growth at 1 µM (PC-3 [9]): 103%
growth at 1 µM (BT-549): 108%
growth at 1 µM (MDA-MB-468 [10]): 86%
growth at 100 µM (A549 [11]): 88%
growth at 100 µM (NCI-H460): 99%
growth at 100 µM (HCT-15): 84%
growth at 100 µM (KM12): 88%
growth at 100 µM (SK-MEL-28): 92%
growth at 100 µM (OVCAR-5 [12]): 91%
growth at 100 µM (PC-3 [13]): 88%
growth at 100 µM (MDA-MB-468 [14]): 51%
GI50 (NCI-H23; read-out: GI50): > 100 µM
CC50 (NCI-H23; [16]): > 100 µM
TGI (NCI-H23; read-out: TGI): > 100 µM
GI50 (NCI-H23; read-out: pGI50 (converted)): > 100 µM
CC50 (NCI-H23; [17]): > 100 µM
TGI (NCI-H23; read-out: pTGI): > 100 µM
GI50 (SF-268; read-out: GI50): > 100 µM
LC50 (SF-268; read-out: LC50): > 100 µM
TGI (SF-268; read-out: TGI): > 100 µM
GI50 (SF-268; read-out: pGI50 (converted)): > 100 µM
LC50 (SF-268; read-out: pLC50 (converted)): > 100 µM
TGI (SF-268; read-out: pTGI): > 100 µM
GI50 (M14 [15]; read-out: GI50): > 100 µM
CC50 (M14 [15]; [16]): > 100 µM
TGI (M14 [15]; read-out: TGI): > 100 µM
GI50 (M14 [15]; read-out: pGI50 (converted)): > 100 µM
CC50 (M14 [15]; [17]): > 100 µM
TGI (M14 [15]; read-out: pTGI): > 100 µM
GI50 (SK-MEL-5; read-out: GI50): > 100 µM
LC50 (SK-MEL-5; read-out: LC50): > 100 µM
TGI (SK-MEL-5; read-out: TGI): > 100 µM
GI50 (SK-MEL-5; read-out: pGI50 (converted)): > 100 µM
LC50 (SK-MEL-5; read-out: pLC50 (converted)): > 100 µM
TGI (SK-MEL-5; read-out: pTGI): > 100 µM
GI50 (IGROV-1; read-out: GI50): > 100 µM
CC50 (IGROV-1; [16]): > 100 µM
TGI (IGROV-1; read-out: TGI): > 100 µM
GI50 (IGROV-1; read-out: pGI50 (converted)): > 100 µM
CC50 (IGROV-1; [17]): > 100 µM
TGI (IGROV-1; read-out: pTGI): > 100 µM
GI50 (SK-OV-3; read-out: GI50): > 100 µM
LC50 (concentration killing 50% of cells) (SK-OV-3; read-out: LC50): > 100 µM
TGI (SK-OV-3; read-out: TGI): > 100 µM
GI50 (SK-OV-3; read-out: pGI50 (converted)): > 100 µM
LC50 (concentration killing 50% of cells) (SK-OV-3; read-out: pLC50 (converted)): > 100 µM
TGI (SK-OV-3; read-out: pTGI): > 100 µM
